Source: ChEMBL document CHEMBL1201862, “PubChem BioAssay data set” (2004)
Calls of active or inactive are those of the source.

Columns and labels:
[1] = target: T1, E3 ubiquitin-protein ligase XIAP (Homo sapiens, UniProt P98170); assay: Counter Screen using XIAP-Bir3 for Chemical Antagonists of Bir1/2 domains of IAP-family anti-apoptotic proteins. [Related pubchem assays (depositor defined):AID1018, AID1449, AID1514, AID1638, AID1749, AID1750, AID488957, AID488963]
[2] = target: T1, E3 ubiquitin-protein ligase XIAP; assay: small molecules displacing peptide from XIAP – biochemical, IAP family, fluorescence polarization (AID 1018); type: functional
Troponin, cardiac muscle = Troponin, cardiac muscle (Homo sapiens, UniProt P19429+P45379+P63316); assay: Fluorescence-based biochemical high throughput dose response assay for activators of the calcium sensitivity of cardiac Regulated Thin Filaments (RTF). [Related pubchem assays (depositor defined):AID493008, AID493018, AID504382, AID504383]; type: protein-complex assay
HEK293 [3] = assay: inhibition of NOD1-driven NF-kB reporter – cell-based, luminescence, uHTS, primary screen (AID 1578); type: functional; details: Homo sapiens
HEK293 [4] = assay: cells; type: functional, cell-based; details: Homo sapiens
HEK293 [5] = assay: cells; type: functional, cell-based; details: Homo sapiens; remark: listed apart in the source
[6] = target: Nucleotide-binding oligomerization domain-containing protein 2 (Homo sapiens, UniProt Q9HC29); assay: inhibition of NOD2-driven NF-kB reporter – cell-based, luminescence, uHTS, HEK293 (AID 1566); type: functional
HEK293 [7] = assay: NOD2 signaling inhibitors in MDP-stimulated cells, cell-based, uHTS, luminescence (AID 2001); type: functional; details: Homo sapiens
HEK293 [8] = assay: cells; type: functional, cell-based; details: Homo sapiens; remark: listed apart in the source
H9c2 = assay: cells; type: functional, cell-based; details: Rattus norvegicus, H9c2, Myocardium;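 also: confirmatory concentration-response retest of ultra-high-throughput screening hits for modulation of myocardial damage; cell death induced by hydrogen peroxide oxidative stress; compound pretreatment for 60 min then peroxide exposure for 2 h; potency is for protecting the cells against peroxide damage rather than for killing them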

`N#Cc1ccccc1CSc1nc2cc(Br)c[nH]c-2n1` was tested. Which IC50 [1] did it give?
Its IC50 is > 100 µM (inactive).

And the IC50 [2]?
Its IC50 is > 100 µM (not active).

For `O=C(O)c1ncc(-c2ccccc2)cn1`, which EC50 (Troponin, cardiac muscle) is on record?
Its EC50 is > 71.5 µM (inactive).

Which results are given for `Cc1nc(N2CCN(c3ccccn3)CC2)c2c(C)c(C(=O)Nc3ccccc3F)sc2n1`?
EC50 (HEK293 [3]): 12.4 µM (active); IC50 (HEK293 [4]): 5.78 µM (active); IC50 (HEK293 [5]): > 20 µM (inactive); EC50 [6]: 3.56 µM (active); IC50 (HEK293 [7]): 5.23 µM (active); IC50 (HEK293 [8]): 14.3 µM (active); IC50 (H9c2): > 79 µM (inactive)

For `O=C(Nc1ccccc1-c1ccccc1)c1ccc(Cl)c([N+](=O)[O-])c1`, which EC50 (Troponin, cardiac muscle) is on record?
Its EC50 is > 71.5 µM (inactive).
